US10695337B2, “Piperidin-4-yl azetidine derivatives as JAK1 inhibitors” (Incyte Corporation, priority 2010, dated 2020)

Molecular target: human JAK1 (a.a. 837-1142)
Test: In vitro JAK kinase assay (HTRF, phosphorylation of a biotinylated peptide), JAK1
Type: biochemical
Conditions: measured at 1 mM ATP; JAK2 IC50 / JAK1 IC50
In short: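 N-terminally His-tagged catalytic domains, baculovirus-expressed in insect cells and purified, were used as enzyme. Reactions ran 1 hr at room temperature and were stopped with a mix of 45 mM EDTA, 300 nM SA-APC and 6 nM Eu-Py20. The HTRF signal was read after 40 min of antibody binding.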

| SMILES | IC50 Ratio JAK2/JAK1 |
| --- | --- |
| N#CCC1(n2cc(-c3ncnc4[nH]ccc34)cn2)CN(C2CCN(C(=O)c3sc4cc(F)ccc4c3Cl)CC2)C1 [Example 91, {1-{1-[(3-chloro-6-fluoro-1-benzothien-2-yl)carbonyl]piperidin-4-yl}-3-[4-(7H-pyrrolo[2,3-d]pyrimidin-4-yl)-1H-pyrazol-1-yl]azetidin-3-yl}acetonitrile] | 1.7 |
| N#CCC1(n2cc(-c3ncnc4[nH]ccc34)cn2)CN(C2CCN(C(=O)c3sc4cccc(F)c4c3Cl)CC2)C1 [Example 92, {1-{1-[(3-chloro-4-fluoro-1-benzothien-2-yl)carbonyl]piperidin-4-yl}-3-[4-(7H-pyrrolo[2,3-d]pyrimidin-4-yl)-1H-pyrazol-1-yl]azetidin-3-yl}acetonitrile] | 2.8 |
| N#CCC1(n2cc(-c3ncnc4[nH]ccc34)cn2)CN(C2CCN(C(=O)c3cc4c(C(F)(F)F)cccc4s3)CC2)C1 [Example 93, [3-[4-(7H-pyrrolo[2,3-d]pyrimidin-4-yl)-1H-pyrazol-1-yl]-1-(1-{[4-(trifluoromethyl)-1-benzothien-2-yl]carbonyl}piperidin-4-yl)azetidin-3-yl]acetonitrile] | 1.5 |
| N#CCC1(n2cc(-c3ncnc4[nH]ccc34)cn2)CN(C2CCN(C(=O)c3cc4ccc(C(F)(F)F)cc4s3)CC2)C1 [Example 94, [3-[4-(7H-pyrrolo[2,3-d]pyrimidin-4-yl)-1H-pyrazol-1-yl]-1-(1-{[6-(trifluoromethyl)-1-benzothien-2-yl]carbonyl}piperidin-4-yl)azetidin-3-yl]acetonitrile] | 1.0 |
| N#CCC1(n2cc(-c3ncnc4[nH]ccc34)cn2)CN(C2CCN(C(=O)c3cc4cccc(C(F)(F)F)c4s3)CC2)C1 [Example 95, [3-[4-(7H-pyrrolo[2,3-d]pyrimidin-4-yl)-1H-pyrazol-1-yl]-1-(1-{[7-(trifluoromethyl)-1-benzothien-2-yl]carbonyl}piperidin-4-yl)azetidin-3-yl]acetonitrile] | 2.7 |
| N#CCC1(n2cc(-c3ncnc4[nH]ccc34)cn2)CN(C2CCN(C(=O)c3csc4ccccc34)CC2)C1 [Example 96, {1-[1-(1-benzothien-3-ylcarbonyl)piperidin-4-yl]-3-[4-(7H-pyrrolo[2,3-d]pyrimidin-4-yl)-1H-pyrazol-1-yl]azetidin-3-yl} acetonitrile] | 0.5 |
| N#CCC1(n2cc(-c3ncnc4[nH]ccc34)cn2)CN(C2CCN(C(=O)C3CCc4ccccc4C3)CC2)C1 (centres unmarked) [Example 97, {3-[4-(7H-pyrrolo[2,3-d]pyrimidin-4-yl)-1H-pyrazol-1-yl]-1-[1-(1,2,3,4-tetrahydronaphthalen-2-ylcarbonyl)piperidin-4-yl]azetidin-3-yl}acetonitrile] | 2.2 |
| N#CCC1(n2cc(-c3ncnc4[nH]ccc34)cn2)CN(C2CCN(C(=O)C3CCC(C(F)(F)F)CC3)CC2)C1 (centres unmarked) [Example 98, [3-[4-(7H-pyrrolo[2,3-d]pyrimidin-4-yl)-1H-pyrazol-1-yl]-1-(1-{[4-(trifluoromethyl)cyclohexyl]carbonyl}piperidin-4-yl)azetidin-3-yl] acetonitrile] | 3.7 |
| N#CCC1(n2cc(-c3ncnc4[nH]ccc34)cn2)CN(C2CCN(C(=O)C3CCC(F)(F)CC3)CC2)C1 [Example 100, {1-{1-[(4,4-difluorocyclohexyl)carbonyl]piperidin-4-yl}-3-[4-(7H-pyrrolo[2,3-d]pyrimidin-4-yl)-1H-pyrazol-1-yl]azetidin-3-yl}acetonitrile] | 6.6 |
| N#CCC1(n2cc(-c3ncnc4[nH]ccc34)cn2)CN(C2CCN(C(=O)C3CCCC3)CC2)C1 [Example 101, {1-[1-(cyclopentylcarbonyl)piperidin-4-yl]-3-[4-(7H-pyrrolo[2,3-d]pyrimidin-4-yl)-1H-pyrazol-1-yl]azetidin-3-yl}acetonitrile] | 8.3 |
| N#CCC1(n2cc(-c3ncnc4[nH]ccc34)cn2)CN(C2CCN(C(=O)C3CCC(c4ccc(Cl)cc4)CC3)CC2)C1 (centres unmarked) [Example 105, {1-(1-{[4-(4-chlorophenyl)cyclohexyl]carbonyl}piperidin-4-yl)-3-[4-(7H-pyrrolo[2,3-d]pyrimidin-4-yl)-1H-pyrazol-1-yl]azetidin-3-yl}acetonitrile] | 7.2 |
| N#CCC1(n2cc(-c3ncnc4[nH]ccc34)cn2)CN(C2CCN(C(=O)Cc3ccccc3)CC2)C1 [Example 109, {1-[1-(phenylacetyl)piperidin-4-yl]-3-[4-(7H-pyrrolo[2,3-d]pyrimidin-4-yl)-1H-pyrazol-1-yl]azetidin-3-yl} acetonitrile] | 1.1 |
| N#CCC1(n2cc(-c3ncnc4[nH]ccc34)cn2)CN(C2CCN(C(=O)C3(c4ccccc4)CC3)CC2)C1 [Example 110, {1-{1-[(1-phenylcyclopropyl)carbonyl]piperidin-4-yl}-3-[4-(7H-pyrrolo[2,3-d]pyrimidin-4-yl)-1H-pyrazol-1-yl]azetidin-3-yl}acetonitrile] | 1.6 |
| N#CCC1(n2cc(-c3ncnc4[nH]ccc34)cn2)CN(C2CCN(C(=O)C3(c4ccc(Cl)cc4)CC3)CC2)C1 [Example 111, {1-(1-{[1-(4-chlorophenyl)cyclopropyl]carbonyl}piperidin-4-yl)-3-[4-(7H-pyrrolo [2,3-d]pyrimidin-4-yl)-1H-pyrazol-1-yl]azetidin-3-yl}acetonitrile] | 2.6 |
| N#CCC1(n2cc(-c3ncnc4[nH]ccc34)cn2)CN(C2CCN(C(=O)Cc3c(Cl)cccc3Cl)CC2)C1 [Example 112, {1-{1-[(2,6-dichlorophenyl)acetyl]piperidin-4-yl}-3-[4-(7H-pyrrolo[2,3-d]pyrimidin-4-yl)-1H-pyrazol-1-yl]azetidin-3-yl} acetonitrile] | 8.2 |
| Cc1cc(C)c(CC(=O)N2CCC(N3CC(CC#N)(n4cc(-c5ncnc6[nH]ccc56)cn4)C3)CC2)c(C)c1 [Example 113, {1-[1-(mesitylacetyl)piperidin-4-yl]-3-[4-(7H-pyrrolo[2,3-d]pyrimidin-4-yl)-1H-pyrazol-1-yl]azetidin-3-yl} acetonitrile] | 4.2 |

Now from value to compound:

| IC50 Ratio JAK2/JAK1 | SMILES |
| --- | --- |
| 1.5 | N#CCC1(n2cc(-c3ncnc4[nH]ccc34)cn2)CN(C2CCN(C(=O)c3ccc(-c4ccccc4)cc3)CC2)C1 [Example 114, {1-[1-(biphenyl-4-ylcarbonyl)piperidin-4-yl]-3-[4-(7H-pyrrolo[2,3-d]pyrimidin-4-yl)-1H-pyrazol-1-yl]azetidin-3-yl}acetonitrile] |
| 10.0 | N#CCC1(n2cc(-c3ncnc4[nH]ccc34)cn2)CN(C2CCN(C(=O)c3ccc(-c4ccncc4)c(F)c3)CC2)C1 [Example 117, {1-[1-(3-fluoro-4-pyridin-4-ylbenzoyl)piperidin-4-yl]-3-[4-(7H-pyrrolo[2,3-d]pyrimidin-4-yl)-1H-pyrazol-1-yl]azetidin-3-yl} acetonitrile] |
| 14.0 | N#CCC1(n2cc(-c3ncnc4[nH]ccc34)cn2)CN(C2CCN(C(=O)c3ccc(-c4ccc(C#N)c(F)c4)c(F)c3)CC2)C1 [Example 119, 4′-[(4-{3-(cyanomethyl)-3-[4-(7H-pyrrolo[2,3-d]pyrimidin-4-yl)-1H-pyrazol-1-yl]azetidin-1-yl}piperidin-1-yl)carbonyl]-2′,3-difluorobiphenyl-4-carbonitrile] |
| 3.8 | N#CCC1(n2cc(-c3ncnc4[nH]ccc34)cn2)CN(C2CCN(C(=O)c3ccc(-c4cccnc4)c(F)c3)CC2)C1 [Example 123, {1-[1-(3-fluoro-4-pyridin-3-ylbenzoyl)piperidin-4-yl]-3-[4-(7H-pyrrolo[2,3-d]pyrimidin-4-yl)-1H-pyrazol-1-yl]azetidin-3-yl} acetonitrile] |
| 8.4 | N#CCC1(n2cc(-c3ncnc4[nH]ccc34)cn2)CN(C2CCN(C(=O)c3ccc(-c4ccccc4C#N)c(F)c3)CC2)C1 [Example 124, 4′-[(4-{3-(cyanomethyl)-3-[4-(7H-pyrrolo[2,3-d]pyrimidin-4-yl)-1H-pyrazol-1-yl]azetidin-1-yl}piperidin-1-yl)carbonyl]-2′-fluorobiphenyl-2-carbonitrile] |
| 8.1 | N#CCC1(n2cc(-c3ncnc4[nH]ccc34)cn2)CN(C2CCN(C(=O)c3ccc(-c4cccc(C#N)c4)c(F)c3)CC2)C1 [Example 125, 4′-[(4-{3-(cyanomethyl)-3-[4-(7H-pyrrolo[2,3-d]pyrimidin-4-yl)-1H-pyrazol-1-yl]azetidin-1-yl}piperidin-1-yl)carbonyl]-2′-fluorobiphenyl-3-carbonitrile] |
| 6.3 | N#CCC1(n2cc(-c3ncnc4[nH]ccc34)cn2)CN(C2CCN(C(=O)c3ccc(-c4ccc(C#N)cc4)cc3)CC2)C1 [Example 126, 4′-[(4-{3-(cyanomethyl)-3-[4-(7H-pyrrolo[2,3-d]pyrimidin-4-yl)-1H-pyrazol-1-yl]azetidin-1-yl}piperidin-1-yl)carbonyl]biphenyl-4-carbonitrile] |
| 4.3 | N#CCC1(n2cc(-c3ncnc4[nH]ccc34)cn2)CN(C2CCN(C(=O)c3ccc(-c4ccc(F)c(F)c4)c(F)c3)CC2)C1 [Example 127, (3-[4-(7H-pyrrolo[2,3-d]pyrimidin-4-yl)-1H-pyrazol-1-yl]-1-{1-[(2,3′,4′-trifluorobiphenyl-4-yl)carbonyl]piperidin-4-yl}azetidin-3-yl) acetonitrile] |
| 3.5 | N#CCC1(n2cc(-c3ncnc4[nH]ccc34)cn2)CN(C2CCN(C(=O)c3ccc(-c4cc(F)cc(C#N)c4)c(F)c3)CC2)C1 [Example 128, 4′-[(4-{3-(cyanomethyl)-3-[4-(7H-pyrrolo[2,3-d]pyrimidin-4-yl)-1H-pyrazol-1-yl]azetidin-1-yl}piperidin-1-yl)carbonyl]-2′,5-difluorobiphenyl-3-carbonitrile] |
| 7.9 | N#CCC1(n2cc(-c3ncnc4[nH]ccc34)cn2)CN(C2CCN(C(=O)c3ccc(-c4cccc5ncccc45)c(F)c3)CC2)C1 [Example 129, {1-[1-(3-fluoro-4-quinolin-5-ylbenzoyl)piperidin-4-yl]-3-[4-(7H-pyrrolo[2,3-d]pyrimidin-4-yl)-1H-pyrazol-1-yl]azetidin-3-yl} acetonitrile] |
